The results in this text go back to patent US20240033244A1, “COMPOSITIONS AND METHODS FOR INHIBITING YTHDF1” (SHANGHAI INSTITUTE OF MATERIA MEDICA, CHINESE ACADEMY OF …, priority 2020, published 2024).

Test [1] deals with tumor infiltrating T cells. In words: Tumor infiltrating T cell function (PMA/ionomycin, intracellular staining). In kind it is in vivo, mouse. To be noted: B16-OVA bearing mice, PMA and ionomycin stimulation. Here is the method: Tumor infiltrating leukocytes were resuspended by RPMI 1640 medium at 5×10^6 per mL in 96-well plates. Phorbol-12-myristate-13-acetate (PMA) (2.5 μg/mL) and ionomycin (0.5 μg/mL) were used to stimulate T cells together with brefeldin A were added to the culture medium for 2 hours at 37° C. Cell concentration of total lymphocytes from draining lymph node was adjusted to 5×10^6 per mL in 96-well plate. 1 μg/mL OT-1 (OVA 257-264) peptide was added to the wells and stimulated for 96 hours. Samples were stained with CD45 and CD8 on ice for 30 min. Intracellular staining was performed to quantify IFN-γ and granzyme B production.
To explore the effects of SAA treatment on T cell function, SAA treated B16-OVA bearing mice were sacrificed to investigate tumor infiltrating T cell (TILs) function. Firstly, Phorbol-12-myristate-13-acetate (PMA) and ionomycin were used to nonspecifically stimulate tumor infiltrating T cell, then intracellular staining was performed to quantify cytokine (e.g., IFN-γ, granzyme B) production by FACS.

The next test has as its target T1, YTHDF1 mutant F480A (Homo sapiens, UniProt Q9BYJ9, F480A).
T1 construct: GST (N, cleaved yes); made in house; host or cells: E. coli BL21 (DE3)
In words: FP assay with YTHDF1 mutant F480A. In kind it is binding. As for the experimental part:
The protein YTHDF1 (361-559) (SEQ ID NO: 2) and its mutants (SEQ ID NOs: 4-13) were cloned into pGEx-6P-1 vector (obtained from YouBio Co, Ltd, Catalog NO: VT1258), and the His-YTHDF1 (361-559) (SEQ ID NO: 3) used in AlphaScreen Assay was cloned into modified pET28a vector (obtained from YouBio Co, Ltd, Catalog NO: VT1207). The vectors were transformed into E. coli BL21 (DE3) cells and cultured at 37° C. When OD value reached 0.6˜0.8, 1 mM Isopropyl-β-D-thiogalactopyranoside was added to overexpress the protein at 16° C. overnight. […] Then, the proteins were further purified via cation exchange (HiTrap SP, GE Healthcare) and finally through a Superdex 75 10/300 column (GE Healthcare). At last, the purified YTHDF1(361-559) and the mutants were kept in buffer which contains 20 mM Hepes (pH 7.4) and 200 mM NaCl. For His-YTHDF1 (361-559), the protein was purified via Ni-NTA chromatography (HisTrap FF, GE Healthcare), followed by cation exchange and Superdex 75 10/300 column in sequence. And the obtained protein was kept in the buffer with the same ingredients.
All of the YTHDF1 (361-559), the 5′-FAM labeled m^6A-containing mRNA (5′-FAM-[…] (m^6A) CUGUG-3′, SEQ ID NO: 14) and the candidate compounds were diluted with assay buffer (20 mM Hepes (pH 7.4), 50 mM NaCl, 0.01% (v/v) tween 20, 5% (v/v) glycerol). […] At last, the mixtures were measured by Envision Readers (PerkinElmer). […]

The subject of a further test is FLT3L-DCs. In words: FLT3L-DC cross-priming of OT-I T cells in vitro (IFN-γ cytometric bead array). In kind it is cell-based, mouse. To be noted: 10 μM SAA 12 hours. Here is the method:
Bone marrow was isolated from wild-type and Ythdf1^−/− mice and treated with red cell lysis buffer to remove red blood cell. IMDM medium containing 10% fetal bovine serum was used to suspend bone marrow cells. To culture FLT3L-DCs, cell concentration was adjusted to 1×10^6/mL. Cells were cultured with 100 ng/mL FLT3L for 9 days to get mature FLT3L-DCs. Mature FLT3L-DCs were purified via EasySep Mouse CD11c Positive Selection Kit II, then treated with 10 μM SAA or DMSO in IMDM medium (contain 10% bovine and 100 ng/mL FLT3L) for 10 hours.
For in vitro cross-presentation study, mature FLT3L-DCs were harvested on day 9 and purified by EasySep Mouse CD11 c Positive Selection Kit II, then treated with 10 μM SAA or DMSO in IMDM medium (contain 10% bovine and 100 ng/mL FLT3L) for 10 h. […] Then antigen-obtained DCs were purified and co-cultured with naïve T cells from OT-1 mice at a ratio of 1:10 for 96 h. The co-culture medium was 1640 RPMI contains 10% fetal bovine with or without 1 μg/mL OT-1 (OVA 257-264) peptide. […] Supernatant IFN-γ production was detected via CBA assay.
Bone marrow derived cells (wildtype or Ythdf1 gene deficient) were cultured with FLT3L for 9 days to get FLT3L-DC and these DCs were treated with 10 μM SAA for 12 hours, then, FLT3L-DCs were co-cultured with necrotic B16-OVA tumor cell for 6 hours. […] IFN-γ production was assessed by IFN-γ cytometric bead array.

T1 sequence (Q9BYJ9 with tags, fused parts or gaps F480A): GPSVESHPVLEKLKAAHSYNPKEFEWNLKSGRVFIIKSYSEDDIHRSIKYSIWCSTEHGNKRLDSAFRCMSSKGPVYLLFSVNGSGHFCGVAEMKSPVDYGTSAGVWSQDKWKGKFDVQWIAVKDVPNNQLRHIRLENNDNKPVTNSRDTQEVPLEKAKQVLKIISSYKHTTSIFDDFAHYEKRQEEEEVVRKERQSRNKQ

On to `O=C(/C=C/c1ccc(O)c(O)c1/C=C/c1ccc(O)c(O)c1)O[C@H](Cc1ccc(O)c(O)c1)C(=O)O` [SAA, Salvianolic Acid A], for which the “cytokine (IFN-γ, granzyme B) production by tumor infiltrating T cells” value in test [1] is “higher level of cytokines than DMSO group”. In addition, the “inhibitory activity against mutant binding to m6A versus wildtype” value at YTHDF1 mutant F480A was “significantly weaker than that against wildtype YTHDF1”. For the same molecule, the “cross-presentation function (IFN-γ production)” value in the test with FLT3L-DCs (Ythdf1-/- FLT3L-DCs) is “could also promote the cross-presentation function”. Moreover, the “cross-priming of T cells (IFN-γ production)” value in the test on FLT3L-DCs (wildtype FLT3L-DCs) is reported as “better ability in cross-priming T cells than control group”.
